Test results taken from patent US12239643B2, “Therapeutic agent for inflammatory diseases, autoimmune diseases, fibrotic diseases, and cancer diseases” (MEIJI SEIKA PHARMA CO., LTD., priority 2018, dated 2025).
Where two headings read alike, the source gives them in different places.

Experiments:
[1] = Hepatic metabolic stability (rat liver microsome method); type: in vitro ADME; conditions: rat liver microsomes 0.5 mg/mL, test substance 1 μM, NADPH 1 mM, 37° C., 30 minutes
Method: Metabolic stability in rat liver microsomes was evaluated by the following method. First, in 100 mM of potassium phosphate buffer solution (pH 7.4), liver microsomes (concentration at reaction: 0.5 mg/mL) and the test substance (concentration at reaction: 1 μM) were preincubated at 37° C. Five minutes later, 100 mM of potassium phosphate buffer (pH 7.4) solution of NADPH (concentration at reaction: 1 mM) was mixed thereto to start the reaction. After a predetermined time passed, acetonitrile was mixed to the reaction mixture to stop the reaction. Here, the reaction time was 0 and 30 minutes, and drug concentration measurement was performed for each time period using LC-MS. The % remaining value of the test compound was calculated from the value for 0 minutes and the value for 30 minutes, using the calculation formula below: % Remaining=(Value for 30 Minutes/Value for 0 Minutes)×100
The results of measuring the rat liver microsome metabolic Stability (% remaining for 30-minute reaction) for the test compound by the above method were evaluated in accordance with the following evaluated basis; A: a % remaining rate of 75% or more, B: 60% or more and less than 75%, C: 45% or more and less than 60%, and D: less than 45%.

[2] = test system: PDE4; test: Evaluation of PDE4 inhibitory activity, scintillation proximity assay; type: biochemical; conditions: scintillation proximity assay
Summary of the method: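 IC50 was derived from inhibition curves, referenced to an enzyme-free blank and a DMSO-only control. Compound, PDE4 preparation and tritiated cAMP reacted 120 min at RT in Tris-HCl buffer (pH 7.4) with MgCl2, EGTA and BSA; YSi-SPA beads with ZnSO4 bound product before scintillation counting.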

[3] = read-out: PDE4 Inhibitory Activity (Evaluation 1; concentration for the inhibition rate of 50%)
[4] = class symbols of Evaluation 1, read-out: PDE4 Inhibitory Activity (concentration for the inhibition rate of 50%, IC50), Evaluation 1

| Structure (SMILES) | Residual ratio (% remaining for 30-minute reaction) [1] | IC50 [2, 3] [nM] | IC50 [2, 4] [nM] |
| --- | --- | --- | --- |
| c1cnc(Oc2ccc(-c3nccs3)c3oc(N4CC5CC(C4)N5)nc23)cn1 [Example 339, 2-(3,6-Diazabicyclo[3.1.1]heptan-3-yl)-4-(pyrazin-2-yloxy)-7-(thiazol-2-yl)benzo[d]oxazole] | B (B: 60% or more and less than 75%) | < 100 |  |
| OCC(F)(F)Oc1ccc(-c2ccccn2)c2oc(N3CC4CC(C3)N4)nc12 [Example 315, 2-((2-(3,6-Diazabicyclo[3.1.1]heptan-3-yl)-7-(pyridin-2-yl)benzo[d]oxazol-4-yl)oxy)-2,2-difluoroethan-1-ol] | A (A: a % remaining rate of 75% or more) | < 100 |  |
| c1csc(-c2ccc(O[C@@H]3CCOC3)c3nc(N4CC5CC(C4)N5)oc23)n1 [Example 324, 2-(3,6-Diazabicyclo[3.1.1]heptan-3-yl)-4-(((R)-tetrahydrofuran-3-yl)oxy)-7-(thiazol-2-yl)benzo[d]oxazole] | A (A: a % remaining rate of 75% or more) | < 100 |  |
| N#Cc1ccc(-c2nccs2)c2oc(N3CC4CC(C3)N4)nc12 [Example 335, 2-(3,6-Diazabicyclo[3.1.1]heptan-3-yl)-7-(thiazol-2-yl)benzo[d]oxazole-4-carbonitrile] | A (A: a % remaining rate of 75% or more) | < 100 |  |
| FC(F)(F)C(OCc1nnn[nH]1)c1ccc(-c2nccs2)c2oc(N3CC4CCC(C3)N4)nc12 (stereo not drawn) [Example 230, 4-(1-((1H-tetrazol-5-yl)methoxy)-2,2,2-trifluoroethyl)-2-(3,8-diazabicyclo[3.2.1]octan-3-yl)-7-(thiazol-2-yl)benzo[d]oxazole] | A (A: a % remaining rate of 75% or more) | < 100 |  |
| CC(C)(O)C(F)(F)Oc1ccc(-n2cccn2)c2oc(N3CC4CCC(C3)N4)nc12 [Example 316, 1-((2-(3,8-Diazabicyclo[3.2.1]octan-3-yl)-7-(1H-pyrazol-1-yl)benzo[d]oxazol-4-yl)oxy)-1,1-difluoro-2-methylpropan-2-ol] | A (A: a % remaining rate of 75% or more) | < 100 |  |
| CC(C)(O)C(F)(F)Oc1ccc(-c2ccc(Cl)cn2)c2oc(N3CC4CC(C3)N4)nc12 [Example 363, 1-((2-(3,6-Diazabicyclo[3.1.1]heptan-3-yl)-7-(5-chloropyridin-2-yl)benzo[d]oxazol-4-yl)oxy)-1,1-difluoro-2-methylpropan-2-ol] | A (A: a % remaining rate of 75% or more) | < 100 |  |
| c1csc(-c2ccc(OC3CCOCC3)c3nc(N4CC5CC(C4)N5)oc23)n1 [Example 294, 2-(3,6-Diazabicyclo[3.1.1]heptan-3-yl)-4-((tetrahydro-2H-pyran-4-yl)oxy)-7-(thiazol-2-yl)benzo[d]oxazole] | A (A: a % remaining rate of 75% or more) | < 100 |  |
| CC(C)(O)C(F)(F)Oc1ccc(-c2ccccn2)c2oc(N3CC4CCC(C3)N4)nc12 [Example 317, 1-((2-(3,8-Diazabicyclo[3.2.1]octan-3-yl)-7-(pyridin-2-yl)benzo[d]oxazol-4-yl)oxy)-1,1-difluoro-2-methylpropan-2-ol] | A (A: a % remaining rate of 75% or more) | < 100 |  |
| FC(F)(F)c1c(Cl)cc(-c2ccccn2)c2oc(N3CC4CCCC(C3)N4)nc12 [Example 12, 2-(3,9-Diazabicyclo[3.3.1]nonan-3-yl)-5-chloro-7-(pyridin-2-yl)-4-(trifluoromethyl)benzo[d]oxazole] | B (B: 60% or more and less than 75%) |  | < 100 |
| COCC(F)(F)Oc1ccc(-c2nccs2)c2oc(N3CC4CC(C3)N4)nc12 [Example 392, 2-(3,6-Diazabicyclo[3.1.1]heptan-3-yl)-4-(1,1-difluoro-2-methoxyethoxy)-7-(thiazol-2-yl)benzo[d]oxazole] | B (B: 60% or more and less than 75%) | < 100 |  |
| O=C(N1CC(O)C1)C(F)(F)Oc1ccc(-c2nccs2)c2oc(N3CC4CC(C3)N4)nc12 [Example 412, 2-((2-(3,6-Diazabicyclo[3.1.1]heptan-3-yl)-7-(thiazol-2-yl)benzo[d]oxazol-4-yl)oxy)-2,2-difluoro-1-(3-hydroxyazetidin-1-yl)ethan-1-one] | A (A: a % remaining rate of 75% or more) | < 100 |  |
| CC(O)(CO)C(F)(F)Oc1ccc(-c2nccs2)c2oc(N3CC4CC(C3)N4)nc12 (single isomer, unassigned) [Example 364, 3-((2-(3,6-Diazabicyclo[3.1.1]heptan-3-yl)-7-(thiazol-2-yl)benzo[d]oxazol-4-yl)oxy)-3,3-difluoro-2-methylpropane-1,2-diol] | A (A: a % remaining rate of 75% or more) | < 100 |  |
| CS(=O)(=O)c1ccc(Oc2ccc(-c3nccs3)c3oc(N4CC5CC(C4)N5)nc23)nc1 [Example 352, 2-(3,6-Diazabicyclo[3.1.1]heptan-3-yl)-4-((5-(methylsulfonyl)pyridin-2-yl)oxy)-7-(thiazol-2-yl)benzo[d]oxazole] | A (A: a % remaining rate of 75% or more) | < 100 |  |
| c1csc(-c2ccc(OC3COC3)c3nc(N4CC5CC(C4)N5)oc23)n1 [Example 325, 2-(3,6-Diazabicyclo[3.1.1]heptan-3-yl)-4-(oxetan-3-yloxy)-7-(thiazol-2-yl)benzo[d]oxazole] | A (A: a % remaining rate of 75% or more) | < 100 |  |
| CC(C)(O)C(F)(F)Oc1c(Br)cc(-c2nccs2)c2oc(N3CC4CC(C3)N4)nc12 [Example 399, 1-((2-(3,6-Diazabicyclo[3.1.1]heptan-3-yl)-5-bromo-7-(thiazol-2-yl)benzo[d]oxazol-4-yl)oxy)-1,1-difluoro-2-methylpropan-2-ol] | B (B: 60% or more and less than 75%) | < 100 |  |
| c1ccc(Oc2ccc(-c3nccs3)c3oc(N4CC5CC(C4)N5)nc23)nc1 [Example 337, 2-(3,6-Diazabicyclo[3.1.1]heptan-3-yl)-4-(pyridin-2-yloxy)-7-(thiazol-2-yl)benzo[d]oxazole] | B (B: 60% or more and less than 75%) |  |  |
| FC(F)(F)c1c(Cl)cc(-c2ccccn2)c2oc(N3CC4CCC(C3)N4)nc12 [Example 11, 2-(3,8-Diazabicyclo[3.2.1]octan-3-yl)-5-chloro-7-(pyridin-2-yl)-4-(trifluoromethyl)benzo[d]oxazole] |  |  | < 100 |
| CCOC(=O)c1cc(-c2nccs2)c2oc(N3CC4CC(C3)N4)nc2c1 [Example 87, Ethyl 2-(3,6-diazabicyclo[3.1.1]heptan-3-yl)-7-(thiazol-2-yl)benzo[d]oxazole-5-carboxylate] |  |  | < 100 |
| OC(c1cc(-c2cscn2)c2oc(N3CC4CC(C3)N4)nc2c1OC(F)(F)F)C(F)F (stereo not drawn) [Example 301, 1-(2-(3,6-Diazabicyclo[3.1.1]heptan-3-yl)-7-(thiazol-4-yl)-4-(trifluoromethoxy)benzo[d]oxazol-5-yl)-2,2-difluoroethan-1-ol] |  | < 100 |  |
| CS(=O)(=O)c1cc(-c2nccs2)c2oc(N3CC4CC(C3)N4)nc2c1 [Example 46, 2-(3,6-Diazabicyclo[3.1.1]heptan-3-yl)-5-(methylsulfonyl)-7-(thiazol-2-yl)benzo[d]oxazole] |  |  | < 100 |
| O=C(O)COC(c1ccc(-c2nccs2)c2oc(N3CC4CC(C3)N4)nc12)C(F)(F)F (stereo not drawn) [Example 253, 2-(1-(2-(3,6-Diazabicyclo[3.1.1]heptan-3-yl)-7-(thiazol-2-yl)benzo[d]oxazol-4-yl)-2,2,2-trifluoroethoxy)acetic acid] |  | < 100 |  |
| CNS(=O)(=O)c1ccc(-c2nccs2)c2oc(N3CC4CC(C3)N4)nc12 [Example 386, 2-(3,6-Diazabicyclo[3.1.1]heptan-3-yl)-N-methyl-7-(thiazol-2-yl)benzo[d]oxazole-4-sulfonamide] |  | < 100 |  |
| Oc1cc(-c2nccs2)c2oc(N3CC4CCC(C3)N4)nc2c1 [Example 63, 2-(3,8-Diazabicyclo[3.2.1]octan-3-yl)-7-(thiazol-2-yl)benzo[d]oxazol-5-ol] |  |  | < 100 |
| FC(F)(F)c1c(Cl)cc(-c2ccccn2)c2oc(N3CC4CC(C3)N4)nc12 [Example 13, 2-(3,6-Diazabicyclo[3.1.1]heptan-3-yl)-5-chloro-7-(pyridin-2-yl)-4-(trifluoromethyl)benzo[d]oxazole] |  |  | < 100 |
| FC(F)(F)c1cc(-c2nccs2)c2oc(N3CC4CC(C3)N4)nc2c1 [Example 52, 2-(3,6-Diazabicyclo[3.1.1]heptan-3-yl)-7-(thiazol-2-yl)-5-(trifluoromethyl)benzo[d]oxazole] |  |  | < 100 |
